Source: patent publication US9051595B2, “Malt1 specific cleavage in assay and screening method” (University of Lausanne, priority 2007, dated 2015)
“Also recorded” adds a separate entry of the source. Peptide text beside a SMILES is read from it. * marks the point of attachment. Cbz = O=C(OCc1ccccc1)*; CH2F = FC*

How the values were obtained:
Assay type in all cases: cell-based, human
Bcl10 [1] = assay: Western blot for the faster migrating Bcl10 species (Bcl10 cleavage) in stimulated Jurkat cells pre-treated with inhibitors; conditions: for generation of the faster migrating Bcl10 species: Jurkat cells pre-incubated 30 min with inhibitor, stimulated with CD3/CD28, FIG. 2a; for anti-CD3/CD28-induced reduction in the apparent molecular weight of Bcl10: stimulated with anti-CD3 and anti-CD28, FIG. 5c
Description: For short term stimulations, cells were re-suspended at a density of 5×10^7 cells/mi in RPMI with 0.5% serum and pre-warmed for 10 min at 37° C. before addition of the stimulating agent.
T-cell stimulation was initiated by addition of PMA (10 ng/ml, Alexis) and ionomycin (1 μM, Calbiochem) (P/I) or a combination of anti-human CD3ε (10 μg/ml of OKT3, Apotech) and anti-CD28 (10 μg/ml of CD28.2, Immunotech) antibodies (CD3/CD28), immediately followed by addition of 5 μg/ml of cross-linking goat anti-mouse antibody (Southern Biotech).
Stimulations were stopped by addition of ice-cold Tris-NaCl buffer (20 mM Tris-HCl pH 7.4, 150 mM NaCl), and pelleted cells were lysed in Tris-NaCl lysis buffer containing 1% NP40, proteinase inhibitors (Complete, Roche) and phosphatase inhibitors (cocktails I and II, Sigma).
Postnuclear cell lysates were boiled with reducing SDS-sample buffer and analyzed on 16×20 cm gels by 15% SDS-PAGE according to Anderson, N. L. & Anderson, N. G. Analytical techniques for cell fractions. XXII. Two-dimensional analysis of serum and tissue proteins: multiple gradient-slab gel electrophoresis. Anal Biochem 85, 341-54 (1978).
Primary antibodies used are monoclonal mouse anti-phospho ERK (Sigma), rabbit anti-phospho-IκBα (5A5, Cell Signalling), rabbit anti-IκBα (Sigma), and rabbit anti-Bcl10 (H-197, Santa Cruz).
In a first approach, Jurkat cells were pre-incubated with either the pan-PKC inhibitor bisindolyl-maleimide VIII (BIM) or with Gö6976, an inhibitor of classical (Ca2+- and DAG-dependent) PKC isoforms, before stimulation with CD3/CD28 as indicated in Example 1. For pre-incubation, the cells were incubated with […] Gö6976 (Calbiochem) or 500 nM Bisindoleylmaleimide VIII acetate (Alexis), or solvent control for 30 min at 37° in RPMI with 0.5% serum directly prior to stimulation.
Cell lysis and western blots was done as in Example 1. The primary antibody for the experiment with VSV-tagged wt or VSV-tagged Carma1-DN and Carma1-coiled-coil construct is monoclonal mouse anti-VSV (P5D4, Sigma). For Carma1, a rabbit anti-Carma1 (AL220, Alexis) antibody was used.
(§1) For testing if the observed proteolytic activity is an indirect effect of Malt1 on other proteases, Jurkat cells were pretreated with the lysosomal or proteasomal inhibitors (NH4^+/leupeptin or MG132) or solvent control before stimulation with PMA and ionomycin, and postnuclear lysates were analyzed by Western blot as indicated.
(§2) In an analogue experiment, Jurkat cells were pretreated with the pan-caspase inhibitor zVAD-ink or solvent control, and stimulated with anti-CD3 and anti-CD28 antibodies or hexameric recombinant FasL for the indicated times. Postnuclear lysates were analyzed by Western blot with the indicated primary antibodies (FIG. 5c). A non-specific band (n.s.) of the anti-Bcl10 blot served as a loading control.

P-IκB = assay: Western blot for P-IκB in PMA/ionomycin-stimulated Jurkat cells; conditions: Jurkat cells pretreated with inhibitor, PMA and ionomycin; FIG. 5b
Description: as §1

caspase-8 = assay: FasL-induced caspase-8 activation in Jurkat cells (Western blot); conditions: Jurkat cells pretreated with inhibitor, hexameric recombinant FasL; FIG. 5c
Description: as §2

Jurkat T cells = assay: Stimulation-induced adhesion of Jurkat T cells to fibronectin; conditions: FIG. 11f
Description: Central areas of tissue culture dishes (35-mm×10-mm) were coated for 90 min at 25° C. with 50 μl of fibronectin solution (40 μg/ml; Roche). Coated dishes were washed three times with PBS (without Ca2+ and Mg2+) and were blocked for 2 h with 1% (wt/vol) BSA in PBS. Cells were washed with Hank's balanced-salt solution (Gibco) and were left unstimulated or were stimulated at 37° C. for 30 min with MnCl2 (1 mM) or PMA (100 ng/ml), or for 5 min with anti-human CD3 and anti-CD28 (see example 1). Subsequently, cell suspensions were added to fibronectin-coated tissue culture dishes followed by incubation for additional 30 min at 37° C. Non-adherent cells were removed by washing of the dishes three to five times with Hank's balanced-salt solution. Adherent cells were counted in six separate fields with a microscope with an ocular counting reticule.
To test the efficiency of inhibitors, Jurkat T cells stimulated or not with PMA and ionomycin for 20 min are mechanically lysed in cleavage assay buffer (see example 4) in the absence or presence of increasing concentrations of a irreversble cell permeable inhibitor peptide (z-VRPR-fink). This inhibitor was designed based on an optimal substrate cleavage sequence reported for the plant metacaspase AtMC9 (see ref. by Vercammen et al. 2006, J. Mol. Biol., 364(4):625-36). Malt1 protease activity is determined as described in example 4. […]

NF-κB = assay: anti-CD3/CD28-induced NF-κB activation in Jurkat T cells; conditions: FIG. 11d
Bcl10 [2] = assay: Activation-induced cleavage of Bcl10 in living Jurkat T cells and CTLs (Western blot); conditions: Jurkat T cells or CTLs pre-incubated 1 h with inhibitor, PMA and ionomycin; FIGS. 11b, c
IL-2 = IL-2 production of Jurkat cells stimulated with Raji cells and superantigen SEE; conditions: FIG. 11e
Description: To test the efficiency of inhibitors, Jurkat T cells stimulated or not with PMA and ionomycin for 20 min are mechanically lysed in cleavage assay buffer (see example 4) in the absence or presence of increasing concentrations of a irreversble cell permeable inhibitor peptide (z-VRPR-fink). This inhibitor was designed based on an optimal substrate cleavage sequence reported for the plant metacaspase AtMC9 (see ref. by Vercammen et al. 2006, J. Mol. Biol., 364(4):625-36). Malt1 protease activity is determined as described in example 4. […] Moreover, experiments are performed to assess the effect of the inhibitor on anti-CD3/CD28-induced NF-κB activation in Jurkat T cells, on IL-2 production of Jurkat cells stimulated by incubation with antigen-presenting cells (Raji cells in combination with the superantigen SEE) and on stimulation-induced adhesion to fibronectin (see example 7)).

## Cn1cc(C2=C(c3cn(CCCN)c4ccccc34)C(=O)NC2=O)c2ccccc21 [BIM, bisindolyl-maleimide VIII]
Bcl10 [1]
  generation of the faster migrating Bcl10 species: prevented

## Cn1c2ccccc2c2c3c(c4c5ccccc5n(CCC#N)c4c21)CNC3=O [Gö6976]
Bcl10 [1]
  generation of the faster migrating Bcl10 species: not Gö6976 prevented

## CC(C)C[C@@H](C=O)NC(=O)[C@H](CC(C)C)NC(=O)[C@H](CC(C)C)NC(=O)OCc1ccccc1 [MG132] (Cbz-Leu-Leu-Leu-aldehyde)
Bcl10 [1]; Jurkat cells pretreated with inhibitor, stimulated with PMA and ionomycin, FIG. 5a, 5b
  generation of the faster migrating Bcl10 species corresponding to Bcl10 cleavage: did not affect; also recorded: lack of an effect
P-IκB
  stabilization of P-I[…]B: efficiently stabilized

## COC(=O)C[C@H](NC(=O)[C@H](C)NC(=O)[C@@H](NC(=O)OCc1ccccc1)C(C)C)C(=O)CF [zVAD-fmk] (Cbz-Val-Ala-Asp(OMe)-CH2F)
Bcl10 [1]; Jurkat cells pretreated with inhibitor
  anti-CD3/CD28-induced reduction in the apparent molecular weight of Bcl10: no effect
Bcl10 [1]; Jurkat cells pretreated with inhibitor, listed as Z-VAD-fmk
  anti-CD3/CD28-induced reduction in the apparent molecular weight of Bcl10: lack of an effect
caspase-8
  FasL-induced caspase-8 activation: potently inhibited

## z-VRPR-fmk (Cbz-VRPR-CH2F)
Jurkat T cells
  capacity of T cells to adhere to fibronectin upon T-cell activation: impairs
NF-κB
  capacity of T cells to activate NF-κB: impairs
Bcl10 [2]
  activation-induced cleavage of Bcl10: reduction
IL-2
  capacity of T cells to produce IL-2: impairs
